From PMC7932537, “Quantitative profiling of protease specificity” (PLoS Computational Biology, 2021)

What follows are substances tested on MMP-2 (assay: Substrate phage display with NGS: relative probability (RP) of P3-P1' tetramer clusters). Details: MMP2 - no binning; average relative probability of the tetramer; redundant tetramers averaged out.
Format: biochemical, human

Substance | avg_RP
LSSL | 24.2822
MAAL | 32.6562
MAHL [P3-P1' tetramer cluster] | 29.5006
MAWL | 31.5866
MESL | 8.7752
MGHL | 26.7019
MGRL | 18.6873
MLHL | 8.4169
MNSL | 18.7113
MSHL | 24.6165
MSYL | 18.2293
PAAL [P3-P1' tetramer cluster] | 35.8015
PAPM | 30.2085
PAPW | 31.7353
PAQM | 28.6142
PEFL | 12.0159
PEPL | 26.8179
PESL | 26.0767
PEWY | 14.0361
PFKY | 2.0624
PFLL | 9.0855
PFML | 19.624
PFSN | 0.4602

Substance | avg_RP
PGKM | 18.9001
PGLL | 24.9611
PGRL | 29.6024
PHGF | 21.975
PHHL | 27.4742
PHYL | 24.5149
PIEL | 20.545
PIGI | 31.281
PIHM | 18.8886
PKGM | 31.666
PKLI | 0.9254
PKLL | 15.3454
PKNQ | 13.2723
PKWI | 22.5059
PKWL | 29.287
PLAF | 31.4142
PLGI | 33.936
PLGL | 35.3536
PLGM | 34.1118
PLHM | 30.0095
PLKI | 14.0985
PLKV | 0.2165
PLLL | 15.2696

Substance | avg_RP
PLML | 25.0435
PLMY | 17.2027
PLNS | 18.9358
PLQI | 21.9897
PLSY | 31.2477
PLVY | 0.5489
PMDY | 10.9087
PMFL | 18.5721
PMGL | 34.7865
PMHL | 30.095
PMNV | 12.9651
PMWS | 5.1021
PNAF | 16.8865
PNFL | 15.743
PNPL | 23.6266
PNYL | 17.2533
PQGM | 29.6059
PQMI | 16.6558
PQRM | 19.3209
PQWI | 28.1021
PQWM | 29.0885
PRFI | 22.3274
PRGM | 34.3819

Substance | avg_RP
PRGN | 16.6168
PRGS | 16.3331
PRLY | 15.7594
PRNI | 31.9621
PRNT | 2.5391
PRNV | 26.6015
PRPV | 29.4989
PRQV | 4.0665
PRSH | 18.6153
PRSM | 32.6673
PRSW | 32.796
PRSY | 30.3745
PRVL | 13.9079
PRWL | 34.1809
PRYM | 28.0367
PSAL [P3-P1' tetramer cluster] | 36.1873
PSAM | 32.7825
PSAQ | 28.0379
PSGF | 31.2448
PSGW | 32.6048
PSLY | 18.1013
PSRM | 27.1397
PSTL | 30.1803

Substance | avg_RP
PSWS | 13.1501
PSWV | 21.5104
PTAL | 32.8941
PVAM | 31.7171
PVFL | 21.7568
PVHL | 32.2352
PVHM | 25.8779
PVHY | 23.3589
PVNL | 34.508
PVPM | 31.3308
PVWM | 25.8126
PWAL | 31.9211
PWAW | 10.3227
PWFM | 3.6842
PWGM | 25.1614
PWHI | 10.946
PWKL | 9.9628
PWNY | 16.9576
PWSL | 28.5684
PWSV | 0.3793
PYAM | 28.0901

Same assay, conditions: tetramer clusters unique to the MMP-2 selectome, MMP-2 RP

Substance | relative_probability
MAHL [P3-P1' tetramer cluster] | 29.50
MANL [P3-P1' tetramer cluster] | 32.42
MGAL [P3-P1' tetramer cluster] | 31.51
MGNL [P3-P1' tetramer cluster] | 31.00
MGWI [P3-P1' tetramer cluster] | 29.72
MNWL [P3-P1' tetramer cluster] | 30.10
MSNL [P3-P1' tetramer cluster] | 30.28
MSWM [P3-P1' tetramer cluster] | 29.68

Same assay, conditions: tetramer probability in MMP2 set / naive library; 200 nM protease, 2 h, 37°C

Substance | relative probability (RP)
PAAL [P3-P1' tetramer cluster] | 35.8015
PSAL [P3-P1' tetramer cluster] | 36.1873
PSNL [P3-P1' tetramer cluster] | 36.5166

Same assay, conditions: tetramer projected onto MMP-2 cleavage sites determined by Prudova et al. (2010)

Substance | relative probability (RP)
PAAL [P3-P1' tetramer cluster] | 35.8
PRNL [P3-P1' tetramer cluster] | 35.13
PSAL [P3-P1' tetramer cluster] | 36.19
